# Measured values as given in DBAASP.
# Values joined by “and” are separate entries in the source; they are usually repeats but may differ in a detail not shown here. Identical values can stand only once.
# Key:
# Assay in all cases: ≥ marks a high value that may be exact or a test limit, other limits are often not marked, values filed in µg/mL are converted to µM
# [1] = tested on: Bacillus cereus NCDC 0240
# [2] = tested on: Salmonella enterica subsp. enterica serovar Typhimurium ATCC 14028
# [3] = tested on: Pseudomonas aeruginosa NCDC 0105
# [4] = tested on: Staphylococcus aureus ATCC 29213
# [5] = tested on: Listeria monocytogenes ATCC 19111
# [6] = tested on: Escherichia coli MTCC 0723
# [7] = tested on: Staphylococcus aureus NCDC 0111
# [8] = tested on: Acinetobacter johnsonii NCDC 0072
# [9] = tested on: Pseudomonas aeruginosa ATCC 27853
# [10] = tested on: Pseudomonas aeruginosa ATCC BAA-427
# [11] = tested on: Bacillus subtilis ATCC 6633
# [12] = tested on: Klebsiella pneumoniae ATCC 27736
# [13] = tested on: Staphylococcus aureus ATCC 6538
# [14] = tested on: Candida albicans ATCC 36232
# [15] = tested on: Micrococcus luteus ATCC 9341
# [16] = tested on: Pseudomonas aeruginosa ATCC 9027
# [17] = tested on: Staphylococcus aureus 1550
# [18] = tested on: Escherichia coli ATCC 2592
# [19] = tested on: Streptococcus sanguinis ATCC 10556
# [20] = tested on: Streptococcus mutans UA159
# [21] = tested on: Streptococcus sobrinus ATCC 6715
# Klebsiella pneumoniae = tested on: Klebsiella pneumoniae
# [22] = tested on: Aspergillus flavus IFFI 4015
# [23] = tested on: Pseudomonas aeruginosa CMCCB 10104
# Shigella dysenteriae = tested on: Shigella dysenteriae
# Bacillus megaterium = tested on: Bacillus megaterium
# [24] = tested on: Candida albicans ATCC 2002
# [25] = tested on: Penicillium urticae IFFI 2001
# [26] = tested on: Staphylococcus aureus ATCC 2592
# [27] = tested on: Pseudomonas aeruginosa AB93066
# [28] = tested on: Staphylococcus aureus P1374
# [29] = tested on: Staphylococcus aureus ATCC 25923
# Escherichia coli AB94012 = tested on: Escherichia coli AB94012
# [30] = tested on: Staphylococcus aureus P1381
# [31] = tested on: Staphylococcus aureus AB94004
# [32] = tested on: Escherichia coli ATCC 25922
# [33] = tested on: Bacillus cereus KCTC 1012
# [34] = tested on: Staphylococcus saprophyticus
# Staphylococcus aureus = tested on: Staphylococcus aureus
# [35] = tested on: Klebsiella pneumoniae KCTC 2208
# [36] = tested on: Bacillus subtilis KCTC 2217
# Streptococcus pyogenes = tested on: Streptococcus pyogenes
# Acinetobacter baumannii = tested on: Acinetobacter baumannii
# Streptococcus sp. = tested on: Streptococcus sp.
# Escherichia coli = tested on: Escherichia coli
# [37] = tested on: Staphylococcus epidermidis
# [38] = tested on: Acinetobacter baumannii KCTC 2508
smiles,measurement,setting,value
CC[C@H](C)[C@H](NC(=O)[C@H](Cc1c[nH]c2ccccc12)NC(=O)[C@@H](NC(=O)[C@H](Cc1c[nH]c2ccccc12)NC(=O)[C@@H]1CCCN1C(=O)[C@@H](NC(=O)[C@H](C)N)[C@@H](C)CC)[C@@H](C)CC)C(=O)N[C@@H](Cc1c[nH]c2ccccc12)C(=O)N[C@@H](Cc1c[nH]c2ccccc12)C(=O)N[C@@H](CC(C)C)C(=O)N[C@@H](CC(C)C)C(=O)N[C@@H](CCCN=C(N)N)C(=O)N[C@@H](CCCCN)C(=O)NCC(=O)O [AIPWIWIWWLLRKG],MIC,[1],0.8 µM
same,MIC,[2],1.5 µM
same,MIC,[3],6 µM
same,MIC,[4],6 µM
same,MIC,[5],6 µM
same,MIC,[6],6 µM
same,MIC,[7],0.4 µM
same,MIC,[8],1.5 µM
same,MIC,[9],6 µM
CC[C@H](C)[C@H](NC(=O)CNC(=O)[C@H](CCCN=C(N)N)NC(=O)[C@H](Cc1ccccc1)NC(=O)[C@@H](NC(=O)[C@H](Cc1cnc[nH]1)NC(=O)[C@H](Cc1cnc[nH]1)NC(=O)[C@H](Cc1ccccc1)NC(=O)[C@@H](N)Cc1ccccc1)[C@@H](C)CC)C(=O)N[C@H](C(=O)N[C@@H](Cc1cnc[nH]1)C(=O)N[C@H](C(=O)NCC(=O)N[C@@H](CCCCN)C(=O)N[C@H](C(=O)N[C@H](C(=O)N[C@@H](Cc1cnc[nH]1)C(=O)N[C@@H](CCCN=C(N)N)C(=O)N[C@@H](CC(C)C)C(=O)N[C@H](C(=O)N[C@H](C(=O)NCC(N)=O)[C@@H](C)O)C(C)C)C(C)C)[C@@H](C)O)C(C)C)C(C)C [FFHHIFRGIVHVGKTVHRLVTG],MIC,[10],12 µM
same,MIC,[11],8 µM
same,MIC,[12],6 µM
CC(C)[C@H](NC(=O)[C@H](CCCCN)NC(=O)[C@@H](NC(=O)[C@H](CCCCN)NC(=O)[C@H](Cc1ccccc1)NC(=O)[C@H](CCCCN)NC(=O)[C@@H](NC(=O)[C@H](CCCCN)NC(=O)[C@@H](N)Cc1ccccc1)C(C)C)C(C)C)C(=O)N[C@@H](CCCCN)C(=O)O [FKVKFKVKVK],MIC,[13],7.2 µM
same,MIC,[14],5 µM and 8 µM
same,MIC,[15],4 µM
same,MIC,[16],4.8 µM
same,MIC,[17],8.8 µM
same,MIC,[18],10 µM
CC(C)[C@H](NC(=O)[C@H](CCCN=C(N)N)NC(=O)[C@H](C)NC(=O)[C@H](C)NC(=O)[C@H](CCCCN)NC(=O)[C@H](CCCCN)NC(=O)[C@H](Cc1ccccc1)NC(=O)[C@H](Cc1ccccc1)NC(=O)[C@H](CCCN=C(N)N)NC(=O)CNC(=O)[C@H](Cc1c[nH]c2ccccc12)NC(=O)CN)C(=O)NCC(=O)N[C@@H](CCCCN)C(=O)N[C@@H](CCCN=C(N)N)C(=O)N[C@H](C(=O)NCC(=O)N[C@@H](CCCCN)C(=O)O)C(C)C [GWGRFFKKAARVGKRVGK],MIC,[19],≥ 250 µM
same,MIC,[20],≥ 250 µM
same,MIC,[21],≥ 250 µM
CC[C@H](C)[C@H](NC(=O)[C@H](CCCCN)NC(=O)[C@H](C)NC(=O)CNC(=O)[C@@H](NC(=O)[C@@H](N)CO)[C@@H](C)CC)C(=O)N[C@@H](CC(C)C)C(=O)NCC(=O)NCC(=O)N[C@H](C(=O)N[C@@H](CCCCN)C(=O)N[C@H](C(=O)N[C@@H](Cc1ccccc1)C(=O)N[C@@H](Cc1ccccc1)C(=O)N[C@@H](CCCCN)C(=O)NCC(=O)N[C@@H](C)C(=O)N[C@@H](CC(C)C)C(=O)N[C@@H](CCCCN)C(=O)N[C@@H](CCC(=O)O)C(=O)N[C@@H](CC(C)C)C(=O)N[C@@H](C)C(=O)N[C@@H](CO)C(=O)N[C@H](C(=O)N[C@@H](Cc1ccc(O)cc1)C(=O)N[C@@H](CC(C)C)C(=O)N[C@@H](CCC(N)=O)C(=O)O)[C@@H](C)O)[C@@H](C)O)C(C)C [SIGAKILGGVKTFFKGALKELASTYLQ],MIC,Klebsiella pneumoniae,1.27 µM
same,MIC,[22],4.22 µM
same,MIC,[23],2.53 µM
same,MIC,Shigella dysenteriae,4.22 µM
same,MIC,Bacillus megaterium,4.22 µM
same,MIC,[24],0.422 µM
same,MIC,[25],4.22 µM
same,MIC,[26],1.27 µM
CC[C@H](C)[C@H](NC(=O)[C@H](CO)NC(=O)[C@H](CCCCN)NC(=O)[C@@H](NC(=O)CNC(=O)[C@H](CCCCN)NC(=O)[C@H](Cc1c[nH]c2ccccc12)NC(=O)[C@H](CC(C)C)NC(=O)[C@H](CCCCN)NC(=O)CNC(=O)[C@H](CC(C)C)NC(=O)[C@@H](NC(=O)[C@@H](N)CO)[C@@H](C)CC)C(C)C)C(=O)N[C@@H](Cc1ccccc1)C(N)=O [SILGKLWKGVKSIF],MIC,[13],3.97 µM
same,MIC,[27],31.7 µM
same,MIC,[28],3.97 µM
same,MIC,[29],3.97 µM
same,MIC,Escherichia coli AB94012,15.9 µM
same,MIC,[30],7.93 µM
same,MIC,[31],3.97 µM
same,MIC,[16],15.9 µM
same,MIC,[32],31.7 µM
CC[C@H](C)[C@H](NC(=O)[C@H](Cc1ccccc1)NC(=O)[C@H](CCCCN)NC(=O)[C@H](CC(C)C)NC(=O)[C@H](C)NC(=O)[C@H](CO)NC(=O)[C@H](CC(C)C)NC(=O)[C@H](Cc1c[nH]c2ccccc12)NC(=O)[C@@H](N)C(C)C)C(=O)NCC(=O)N[C@@H](CCCCN)C(=O)N[C@@H](Cc1cnc[nH]1)C(=O)N[C@@H](CC(C)C)C(=O)N[C@@H](C)C(=O)N[C@@H](CCCCN)C(=O)N[C@@H](Cc1cnc[nH]1)C(=O)N[C@@H](CCC(N)=O)C(=O)N[C@@H](CC(C)C)C(=O)N[C@@H](CO)C(=O)N[C@@H](CCCCN)C(=O)N[C@@H](CC(C)C)C(N)=O [VWLSALKFIGKHLAKHQLSKL],MIC,[33],2 µM
same,MIC,[34],3.1 µM
same,MIC,Staphylococcus aureus,3.1 µM and 1.41 µM
same,MIC,Klebsiella pneumoniae,50 µM
same,MIC,[35],2 µM
same,MIC,[29],1 µM and > 0.5 µM
same,MIC,[36],1 µM
same,MIC,Streptococcus pyogenes,≥ 50 µM
same,MIC,Acinetobacter baumannii,4.42 µM and 12.5 µM
same,MIC,Streptococcus sp.,3.1 µM
same,MIC,Escherichia coli,12.5 µM
same,MIC,[37],3.1 µM
same,MIC,[32],1 µM
same,MIC,[38],2 µM
